Test results from patent US4382088A, “4,7-Dihydro-4,7-dioxi-1H-cyclohepta[b]pyridine derivatives” (Ayerst, McKenna & Harrison, Inc., priority 1981, dated 1983).

Experiments:
aldose reductase [1] = conditions: Dvornik et al. 1973; Peterson et al. 1979; cited from earlier work
aldose reductase [2] = molecular target: T1, aldose reductase (Bos taurus, UniProt P16116); assay: in vitro aldose reductase inhibition (modified Hayman and Kinoshita procedure, enzyme from bovine lens); type: biochemical; conditions: for inhibition at 10 µM: 10^-5 molar, read-out: % Inhibition at Different Molar Concentrations (in vitro), 10^-5; for inhibition at 1 µM: 10^-6 molar, read-out: % Inhibition at Different Molar Concentrations (in vitro), 10^-6; for inhibition at 0.1 µM: 10^-7 molar, read-out: % Inhibition at Different Molar Concentrations (in vitro), 10^-7
T1 construct: preparation of the enzyme from bovine lens; from tissue; host or cells: bovine lens
Protocol: In the present case the procedure of Hayman and Kinoshita is modified in that the final chromatography step is omitted in the preparation of the enzyme from bovine lens.
The following results were obtained when the foregoing listed compounds of formula I were evaluated in the above in vitro test.

[3] = hygroscopicity of analytical sample; type: physicochemical; conditions: analytical sample dried under reduced pressure at 140° C.
Protocol: 3-(Ethoxycarbonyl)-4,7-dihydro-6-methoxy-4,7-dioxo-1H-cyclohepta[b]pyridine-1-acetic acid ethyl ester (2.5 g), described in example 5, was heated at reflux in 15% (w/v) aqueous HCl for 2 hr. The resulting precipitate was collected, washed with water and acetone, and recrystallized from water to give 1.8 g of the title compound; mp 272°-274° C.; nmr (DMSO-d6) δ3.95 (s, 3H), 5.5 (s, 2H), 7.28 & 7.75 (2d, 2H), 7.95 (s, 1H), 9.0 (1H, s); ir (Nujol*) 2900, 1700, 1565, 1265, 1165 cm^-1; uv λmax (MeOH) 347 nm (ε11,630), 306 (10,470), 266 (21,365), 249 (32,290). An analytical sample dried under reduced pressure at 140° C. was hygroscopic; Anal Calcd for C14 H11 NO7 : C, 55.09% H, 3.63% N, 4.59%; Found: C, 54.41% H, 3.60% N, 4.55%.

| Structure (SMILES) | inhibition at 10 µM (aldose reductase [2]) | inhibition at 1 µM (aldose reductase [2]) | inhibition at 0.1 µM (aldose reductase [2]) | hygroscopicity [3] | aldose reductase inhibition reported in the literature, in words (aldose reductase [1]) |
| --- | --- | --- | --- | --- | --- |
| O=C(O)CN1C(=O)c2cccc3cccc(c23)C1=O [1,3-Dioxo-1H-benz[de]isoquinoline-2(3H)-acetic acid] |  |  |  |  | effective inhibitor of aldose reductase |
| CCOC(=O)COc1cc2c(=O)c(C(=O)OCC)cn(CC(=O)OCC)c2ccc1=O [Example 5 (R^3 = OCH2 COOC2 H5), 3-(ethoxycarbonyl)-6-[(2-ethoxy-2-oxoethyl)oxy]-4,7-dihydro-4,7-dioxo-1H-cyclohepta[b]pyridine-1-acetic acid ethyl ester] | 40% |  |  |  |  |
| O=C1NC(=O)[C@@]2(CCOc3ccc(F)cc32)N1 [sorbinil, (S)-6-Fluoro-2,3-dihydrospiro(4H-1-benzopyran-4,4'-imidazolidine)-2',5'-dione] |  |  |  |  | aldose reductase inhibiting properties |

Second part, led by results:

| inhibition at 10 µM (aldose reductase [2]) | inhibition at 1 µM (aldose reductase [2]) | inhibition at 0.1 µM (aldose reductase [2]) | hygroscopicity [3] | Structure (SMILES) | aldose reductase inhibition reported in the literature, in words (aldose reductase [1]) |
| --- | --- | --- | --- | --- | --- |
| 97% | 88% | 31% |  | O=C(O)COc1cc2c(=O)c(C(=O)O)cn(CC(=O)O)c2ccc1=O [Example 7 (R^3 = OCH2 COOH), 3-carboxy-6-[(carboxymethyl)oxy]-4,7-dihydro-4,7-dioxo-1H-cyclohepta[b]pyridine-1-acetic acid monohydrate] |  |
| 89% | 79% | 30% | hygroscopic | COc1cc2c(=O)c(C(=O)O)cn(CC(=O)O)c2ccc1=O [Example 7 (R^3 = OCH3), 3-Carboxy-4,7-dihydro-6-methoxy-4,7-dioxo-1H-cyclohepta[b]pyridine-1-aceticAcid] |  |
| 88% | 79% | 37% |  | O=C(O)Cn1cc(C(=O)O)c(=O)c2cc(OCc3ccccc3)c(=O)ccc21 [Example 8, 6-Benzyloxy-3-carboxy-4,7-dihydro-4,7-dioxo-1H-cyclohepta[b]pyridine-1-acetic Acid] |  |
